Data reported in patent US20200323999A1 (The Board of Trustees of the Leland Stanford Junior …, priority 2019, published 2020).

What was measured:
[1] = unit not given; cited from earlier work
[2] = RF-acoustic signal characterization in tube phantom (433 MHz UHF-RF pulse); settings: salts 10 wt %, NaOH 4 wt %; 1 mm tubes
Protocol: To determine the optimal composition of salt solutions for UHF-RF-acoustic contrast agents, five different salts were chosen, NaCl(aq), KI(aq), KCl(aq), MgCl2(aq), and CaCl2(aq) based on their ionic conductivity, solubility in water, and biocompatibility. NaOH(aq) was selected as a control because of its high ionic conductivity but low biocompatibility. […] Their UHF-RF-acoustic signals were measured using a prototype RF-acoustic tomography system with a nanosecond UHF-RF pulse at 433 MHz since this frequency is within the medical device radio-communications service band (MedRadio) (FIGS. 1B-1D). […] The generated RF-acoustic signals were collected by an ultrasound-linear-array transducer with a central frequency at 3.5 MHz that provides 1.2 mm imaging resolution on the transverse plane (FIGS. 1E-1F).
For comparison, a tube was included with only physiological saline (0.9 wt % of NaCl) to mimic RF-acoustic background of tissue. […]
A prototype RF-acoustic tomography imaging system (with main parts from Endra) was used to measure the RF-acoustic signal from the phantom and the mice. […] At each angle, 4095 pulses were recorded and averaged to improve the signal-to-noise ratio. […] The average energy density of a pulse at the target site was measured to be 1 mJ/cm^2, which is within the safety limit of tissue exposure. […] Acoustic signals were recorded by an ultrasound imaging system. […]

Row | Compound | Water solubility [1] | RF-acoustic signal of electrolyte solutions (comparison) [2]
1 | FC(F)(F)C(F)(F)C(F)(F)C(F)(F)C(F)(F)F [Perfluoropentane, perfluoropentane] | 4.00 × 10^−6 | –
2 | [Na+].[OH-] [NaOH(aq), sodium hydroxide, reference compound] | – | strongest RF-acoustic signal
3 | FC(F)(F)C(F)(F)C(F)(F)C(F)(F)C(F)(F)C(F)(F)F [Perfluorohexane, perfluorohexane] | 2.70 × 10^−7 | –
4 | [Cl-].[Na+] [NaCl, sodium chloride] | – | weaker signals than KCl
5 | FC1(F)C(F)(F)C(F)(F)C2(F)C(F)(F)C(F)(F)C(F)(F)C(F)(F)C2(F)C1(F)F (centres unmarked) [Perfluorodecalin, perfluorodecalin] | 9.90 × 10^−9 | –
